Data from BindingDB's records for doi:10.1016/j.bmcl.2018.05.027 (Bristol-Myers Squibb Research and Development, 2018).

How the values were obtained:
[1] = Inhibition of HIV-1 integrase strand transfer activity assessed as reduction in viral replication in presence of 10% fetal bovine serum and 15 mg/mL human serum albumin
[2] = Inhibition of HIV-1 integrase strand transfer activity assessed as reduction in viral replication in presence of 10% fetal bovine serum
[3] = Inhibition of HIV-1 integrase strand transfer activity assessed as reduction in viral replication in presence of 40% human serum

| EC50 [1] [nM] | EC50 [2] [nM] | EC50 [3] [nM] | Compound |
| --- | --- | --- | --- |
| 27 | 3 | – | CN(C)S(=O)(=O)c1cc(F)ccc1CNC(=O)c1nc2n(c(=O)c1O)CCCC21CCCC1 |
| 19 | 2 | – | O=C(NCc1ccc(F)cc1)c1nc2n(c(=O)c1O)CCCC21CCCC1 |
| 857 | 53 | – | CC1(C)OCCn2c1nc(C(=O)NCc1ccc(F)cc1Cl)c(O)c2=O |
| 90 | 1 | – | Cc1cc(CNC(=O)c2nc3n(c(=O)c2O)CCOC3(C)C)ccc1F |
| 557 | 21 | – | Cc1cc(F)ccc1CNC(=O)c1nc2n(c(=O)c1O)CCOC2(C)C |
| 84 | 2 | – | CC1(C)OCCn2c1nc(C(=O)NCc1ccc(F)c(Cl)c1)c(O)c2=O |
| 17 | 2 | 25 | CC1(C)OCCn2c1nc(C(=O)NCc1ccc(F)cc1)c(O)c2=O |
| 21 | 2 | – | O=C(NCc1ccc(F)cc1N1CCCCS1(=O)=O)c1nc2n(c(=O)c1O)CCCC21CCCC1 |
| 14 | 3 | – | O=C(NCc1ccc(F)cc1S(=O)(=O)N1CCOCC1)c1nc2n(c(=O)c1O)CCCC21CCCC1 |
| 8 | 1 | – | CS(=O)(=O)c1cc(F)ccc1CNC(=O)c1nc2n(c(=O)c1O)CCCC21CCCC1 |
| 149 | 5 | – | Cc1cc(CNC(=O)c2nc3n(c(=O)c2O)CCCC32CCCC2)ccc1F |
| 7 | 2 | – | CC1(C)OCCn2c1nc(C(=O)NCc1ccc(F)cc1N1CCCCS1(=O)=O)c(O)c2=O |
| 12 | 3 | – | CN(C)S(=O)(=O)c1c(CNC(=O)c2nc3n(c(=O)c2O)CCOC3(C)C)ccc(F)c1F |
| 6 | 3 | – | CC1(C)OCCn2c1nc(C(=O)NCc1ccc(F)cc1S(C)(=O)=O)c(O)c2=O |
| 3 | 2 | – | CNC(=O)c1cc(F)ccc1CNC(=O)c1nc2n(c(=O)c1O)CCOC2(C)C |
| 19 | 2 | – | CC1(C)OCCn2c1nc(C(=O)NCc1ccc(F)cc1N1CCOCC1)c(O)c2=O |
